According to US12329738B2, “Urolithin A and a composition containing same for external use in inflammations of various etiologies” (WARSZAWSKI UNIWERSYTET MEDYCZNY, priority 2018, dated 2025):

Assays:
mRNA for TNF-alpha = experiment: TNF-alpha mRNA expression in THP-1 derived macrophages (real time PCR); type: cell-based, human; conditions: 40 μM; LPS stimulation; FIG. 14
Procedure: Monocytes of the THP-1 line were cultured in RPMI 1640 medium supplemented with 10% FBS and 2 mM glutamine. For transformation of monocytes into macrophages, the cells were treated with 12.5 ng/mL PMA (phorbol 12-myristate 13-acetate) for 48 hours, then washed and incubated for 24 hours in a culture medium without PMA. After this time, urolithin A, urolithin B, iso-urolithin A and the corresponding glucuronides (GUA, GUB and GiUA) were added to the cells at a concentration of 40 μM. After 1 hour of incubation with the compounds, the cells were stimulated with LPS from Escherichia coli (10 ng/mL).
To assess the level of TNF-alpha production, the cells were incubated for 6 hours, to assess the expression of mRNA for TNF-alpha, the cells were incubated for 24 hours, to assess the effect on ERK1/2 phosphorylation, the cells were incubated for 35 minutes.
The level of TNF-alpha in the culture medium was determined using the immunochemical ELISA method (BD biosciences). Evaluation of the expression of mRNA for TNF-alpha was performed using real time PCR. After 24 hours of incubation, RNA was isolated using NucleoSpin RNA Clean-up (Macherey-Nagel). The amount and quality of isolated RNA was determined using 2100 Bioanalyzer (Agilent Technologies). The expression level of mRNA for TNF-α was determined using Brilliant II SYBR Green QPCR Kit and Aria Mx Real-Time PCR thermocycler (Agilent Technologies). The following were used as primers for TNF-alpha: forward: 5′-[…]-3′, reverse: 5′-[…]-3′. Beta-actin (ACTB) was used as the housekeeping gene; primer forward: 5′-[…]-3′, reverse: 5′-[…]-3′).
The obtained results of experiments on in vitro models were analyzed using the Statistica 13 program (StatSoft, Inc., Tulsa, OK, USA) and presented as mean values±SEM. Statistical significance was set at P≤0.05. The results with established normal distribution in the D'Agostin and Pearson test were prepared using analysis of variance (ANOVA). Parametric post-hoc analysis was performed using Dunnett's test.

[1] = Thermal, acid and UV stability of urolithin A (UPLC-DAD-MS); type: physicochemical; conditions: 80 μM in deionized water or 1M HCl, 24 hours at 37° C. or 12 hours at 80° C.; UVA 365 nm 12 hours
Procedure: Urolithin A at 80 μM was suspended in deionized water or 1M HCl and incubated for 24 hours at 37° C. or for 12 hours at 80° C. The urolithin A solution was also irradiated for 12 hours with a UV lamp emitting UVA radiation with the maximum at 365 nm. The concentration of urolithin A after incubation was determined using the UPLC-DAD-MS method according to Piwowarski et al. 2016.

[2] = system: carrageenan-induced paw edema in mice; conditions: oral administration one hour after induction of edema, next 24 hours; cited from earlier work
[3] = system: Wistar rats (DNCB-induced atopic dermatitis); experiment: Histologic assessment of ear skin in atopic dermatitis rat model; type: in vivo; conditions: lesions treated with the composition of urolithin A; day 32; FIG. 8
Procedure: Wistar rats aged 5-6 weeks (at the start of the experiment) kept under standard conditions with free access to feed and water were used for the tests. The animals were divided into 5 groups, 8 individuals in each group. To prepare 2,4-dinitrochlorobenzene (DNCB) composition inducing inflammation, DNCB was dissolved in 70% ethanol to a final concentration of 1.5% (w/v). Therapeutic composition was an ointment based on white petrolatum with 0.2% or 1.0% urolithin A added. The control ointment was white petrolatum without addition of urolithin A. The induction of chronic atopic dermatitis involved local 9-fold infiltration with 60 μl 1.5% 2,4-dinitrochlorobenzene (DNCB) on each (external and internal) surface of the right ear over 3 weeks (3 times a week). Negative control was the right ear of rats without induction inflammation. Treatment of atopic dermatitis with 0.2% or 1.0% urolithin composition and white petrolatum (control) or 1.0% hydrocortisone composition (positive control) was started eight days after sensitization—one day before the fourth application of DNCB. Ointments with appropriate for given group drug added were applied in a total volume of about 20 μl to each ear surface one day before and 6 hours after each DNCB application (for a period of 3 weeks). […]

[4] = following ingestion of food products rich in ellagitannins; cited from earlier work

O=c1oc2cc(O)ccc2c2ccc(O)cc12 [urolithin A]
TNF-alpha mRNA expression in THP-1 derived macrophages (mRNA for TNF-alpha): inhibitory effect on TNF-alpha mRNA expression
Stability (degradation / change in chemical structure) [1]: stable
Carrageenan-induced paw edema size [2]: significantly reduced its size
Histology of skin lesions [3]: Mild epidermal hyperplasia, infiltration of mononuclear cells (mast cells) and neutrophils. A slight infiltration of inflammatory cells around the blood vessels
Concentration in feces, tissues, blood and urine [4]: ≤ 100 µM
